We go through 3 compounds from paper PMC12329534, “Sal is a proteobacterial bile acid aldolase that repurposes key thiolase catalytic residues for retroaldol cleavage of C5 steroid side chains” (The Journal of Biological Chemistry, 2025).

Data set [1] addresses T1, 17-β-hydroxysteroid dehydrogenase (Hsd4A) (Rhodococcus jostii, UniProt Q0S7K5).
T1 construct: isolated enzyme; construct not described in main text
T1 sequence (Q0S7K5 1-305): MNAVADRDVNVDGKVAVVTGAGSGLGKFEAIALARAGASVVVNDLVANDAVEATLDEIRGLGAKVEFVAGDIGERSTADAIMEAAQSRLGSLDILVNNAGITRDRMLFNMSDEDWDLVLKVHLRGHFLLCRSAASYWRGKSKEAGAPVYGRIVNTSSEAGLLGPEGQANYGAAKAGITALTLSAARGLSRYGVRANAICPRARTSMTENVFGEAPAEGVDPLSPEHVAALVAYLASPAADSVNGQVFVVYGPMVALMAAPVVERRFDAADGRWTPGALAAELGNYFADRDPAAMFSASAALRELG
The data set can be described thus: LC-MS/MS of product; NADH formation at […] nm. It is filed as biochemical. The settings on record: 1 mM NAD+; substrate made in situ from cholyl-enoyl-CoA by CtShy–CtSal; 100 mM HEPES pH 7.5, 25 °C or 50 mM ammonium acetate pH 7.4.

Data set [2] addresses T2, CtShy–CtSal complex (CtSal steroid aldolase activity) (Comamonas testosteroni, UniProt B7X4S8).
T2 construct: gene CtesDRAFT_PD3654; full-length CtShy–CtSal complex co-expressed in E. coli BL21 LOBSTR, His-tag purified; heterotetramer, 160 kDa by SEC (CtShy 35 kDa, CtSal 46 kDa); with Steroid hydratase Shy (DUF35/OB-fold and MaoC domain-containing protein)
T2 sequence (B7X4S8 1-404): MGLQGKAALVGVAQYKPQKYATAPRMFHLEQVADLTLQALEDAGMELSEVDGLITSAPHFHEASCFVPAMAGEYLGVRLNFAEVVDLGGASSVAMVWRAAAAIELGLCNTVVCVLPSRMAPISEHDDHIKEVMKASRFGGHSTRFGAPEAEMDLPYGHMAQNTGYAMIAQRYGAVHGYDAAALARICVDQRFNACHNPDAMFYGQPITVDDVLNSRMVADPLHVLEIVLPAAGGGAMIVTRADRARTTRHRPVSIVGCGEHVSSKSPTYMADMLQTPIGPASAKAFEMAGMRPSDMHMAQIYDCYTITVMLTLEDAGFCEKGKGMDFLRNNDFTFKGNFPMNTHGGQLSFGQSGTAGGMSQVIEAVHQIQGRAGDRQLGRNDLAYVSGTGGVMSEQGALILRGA
T2 sequence (B7X4S7 1-312 partner): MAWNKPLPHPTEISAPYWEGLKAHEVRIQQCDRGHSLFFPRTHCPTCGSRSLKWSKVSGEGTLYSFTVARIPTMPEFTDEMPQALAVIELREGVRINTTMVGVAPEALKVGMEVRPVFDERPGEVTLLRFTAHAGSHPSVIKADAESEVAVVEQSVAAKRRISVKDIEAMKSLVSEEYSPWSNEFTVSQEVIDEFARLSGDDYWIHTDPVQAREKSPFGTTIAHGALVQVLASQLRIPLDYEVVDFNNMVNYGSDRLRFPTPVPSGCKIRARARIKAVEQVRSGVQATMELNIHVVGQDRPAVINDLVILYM
The data set can be described thus: CtSad-coupled NADH formation at […] nm. The class given is biochemical. The conditions noted are these: apparent; 1 mM NAD+ and 7 nM CtSad for coupling, 100 mM HEPES pH 7.5, 25 °C.

The target in data set [3] is T3, CtShy–CtSal complex (CtShy steroid hydratase activity) (Comamonas testosteroni, UniProt B7X4S7).
T3 construct: gene CtesDRAFT_PD3653; full-length CtShy–CtSal complex from E. coli BL21 LOBSTR, His-tag purified; MaoC domain of CtShy is the hydratase domain; with Steroid aldolase Sal (thiolase-like protein)
T3 sequence (B7X4S7 1-312): T2 sequence (B7X4S7 1-312 partner)
The data set can be described thus: LC-MS/MS of products; Hsd4A-coupled NADH end point. The class given is biochemical. The conditions noted are these: 50 mM ammonium acetate pH 7.4 (LC-MS) or 100 mM HEPES pH 7.5, 25 °C; NAD+ and excess Hsd4A.

In data set [4] the test system is T4, C[C@H](C(O)CC(=O)SCCNC(=O)CCNC(=O)[C@H](O)C(C)(C)COP(=O)(O)OP(=O)(O)OC[C@H]1O[C@@H](n2cnc3c(N)ncnc32)[C@H](O)[C@@H]1OP(=O)(O)O)[C@H]1CC[C@H]2[C@@H]3[C@H](O)C[C@@H]4C[C@H](O)CC[C@]4(C)[C@H]3C[C@H](O)[C@]12C.
T4 construct: full-length CtShy–CtSal complex co-expressed in E. coli BL21 LOBSTR, His-tag purified; heterotetramer, 160 kDa by SEC (CtShy 35 kDa, CtSal 46 kDa); with Steroid hydratase Shy (DUF35/OB-fold and MaoC domain-containing protein)
The data set can be described thus: purified protein. The settings on record: apparent, 1 mM NAD+ and 7 nM CtSad for coupling, 100 mM HEPES pH 7.5, 25 °C. It is filed as biochemical, Comamonas testosteroni.

As usually defined, the Km is the concentration of substrate that gives half-maximal velocity. For the compound `C[C@H](C(O)CC(=O)SCCNC(=O)CCNC(=O)[C@H](O)C(C)(C)COP(=O)(O)OP(=O)(O)OC[C@H]1O[C@@H](n2cnc3c(N)ncnc32)[C@H](O)[C@@H]1OP(=O)(O)O)[C@H]1CC[C@H]2[C@@H]3[C@H](O)C[C@@H]4C[C@H](O)CC[C@]4(C)[C@H]3C[C@H](O)[C@]12C` (stereo partly drawn) [Cholyl-22-OH-CoA], in data set [1], the “LC-MS/MS of product; NADH formation at 340 nm” value is “Hsd4A effectively sequestered the CtShy product to form cholyl-22-oxo-CoA”. Also, the Km in data set [2] worked out at 8.12 ± 0.477 µM.

As to `C[C@H](/C=C/C(=O)SCCNC(=O)CCNC(=O)[C@H](O)C(C)(C)COP(=O)(O)OP(=O)(O)OC[C@H]1O[C@@H](n2cnc3c(N)ncnc32)[C@H](O)[C@@H]1OP(=O)(O)O)[C@H]1CC[C@H]2[C@@H]3[C@H](O)C[C@@H]4C[C@H](O)CC[C@]4(C)[C@H]3C[C@H](O)[C@]12C` [cholyl-enoyl-CoA], the “LC-MS/MS of products; Hsd4A-coupled NADH end point” value in data set [3] is given as “Hsd4A effectively sequestered the CtShy product to form cholyl-22-oxo-CoA”.

In general, kcat refers to the maximal rate divided by the concentration of active sites. A word on the kcat/Km: it is the second-order rate constant that governs catalysis at low substrate concentration. In the case of “CtShy–CtSal complex (CtSal steroid aldolase activity) (Comamonas testosteroni KF-1; R216A)”, in data set [4], the Michaelis constant (Km) turned out to be 41.4 ± 1.29 µM, the kcat is 11.6 ± 0.15 s⁻¹ and the kcat/Km stood at 281000 ± 876 M⁻¹ s⁻¹.
